In patent EP2794556B1, “BIS-(ARYL/HETEROARYL)-METHYLENE COMPOUNDS, PHARMACEUTICAL COMPOSITIONS CONTAINING SAME AND THEIR USE FOR TREATING CANCER” (Gleason, James L., priority 2011, dated 2013):

Experiments:
[1] = test system: MALME-3M; assay: NCI 60 cell panel
[2] = test system: AT84 cells; assay: EdU cell growth assay; conditions: AT84 cells
Procedure: (§1) EdU cell growth assay. Click-iT EdU Alexa Fluor high-throughput imaging (HCS) assay for cell proliferation. HCS assays were performed on AT84 mouse squamous carcinoma cell line (ATCC) following the manufacturer's instruction (Molecular Probes, Invitrogen). […] All samples were in triplicate.

[3] = test system: HCT-15; assay: NCI 60 cell panel
[4] = test system: HT29; assay: NCI 60 cell panel
[5] = test system: UO-31; assay: NCI 60 cell panel
[6] = test system: HOP-92; assay: NCI 60 cell panel
[7] = test system: SCC4 cells; assay: EdU cell growth assay
Procedure: as §1

[8] = test system: OVCAR-8; assay: NCI 60 cell panel
[9] = test system: HS 578T; assay: NCI 60 cell panel
[10] = test system: BT-549; assay: NCI 60 cell panel
[11] = test system: CAKI-1; assay: NCI 60 cell panel
[12] = test system: T-47D; assay: NCI 60 cell panel
[13] = test system: HCT-116; assay: NCI 60 cell panel
[14] = test system: NCI-H226; assay: NCI 60 cell panel
[15] = test system: NCI-H460; assay: NCI 60 cell panel
[16] = test system: MOLT-4; assay: NCI 60 cell panel
[17] = test system: SR; assay: NCI 60 cell panel

CCC(CC)(c1ccc(OCC(=O)NO)c(C)c1)c1ccc(OCC(O)C(C)(C)C)c(C)c1 (racemic) [JF-B01, N-Hydroxy-2-(4-(3-(4-(2-hydroxy-3,3-dimethylbutoxy)-3-methylphenyl)pentan-3-yl)-2-methylphenoxy)acetamide]
GI50 ([1]; Homo sapiens, Malme-3M): 2.33 µM | CC50 ([1]; Homo sapiens, Malme-3M, read-out: LC50): 35.7 µM | TGI ([1]; Melanoma, MALME-3M): 1.07E-5 | antiproliferative potency, fold less potent than 1,25D [2]: 10 fold | TGI ([3]; Colon Cancer, HCT-15): 1.12E-5 | GI50 ([3]; Homo sapiens, HCT-15): 1.94 µM | CC50 ([3]; Homo sapiens, HCT-15, read-out: LC50): 33.6 µM | TGI ([4]; Colon Cancer, HT29): 1.00E-5 | GI50 ([4]; Homo sapiens, HT-29): 1.93 µM | CC50 ([4]; Homo sapiens, HT-29, read-out: LC50): 31.7 µM | GI50 ([5]; Homo sapiens, UO-31): 1.92 µM | CC50 ([5]; Homo sapiens, UO-31, read-out: LC50): 26.2 µM | TGI ([5]; Renal Cancer, UO-31): 6.95E-6 | GI50 ([6]; Homo sapiens, HOP-92): 3.08 µM | CC50 ([6]; Homo sapiens, HOP-92, read-out: LC50): 49.2 µM | TGI ([6]; Non-Small Cell Lung Cancer, HOP-92): 1.53E-5 | inhibition of proliferation, EdU incorporation ([7]; 1,25D-resistant SCC4 cells, Fig. 2e, f): completely | EdU incorporation at higher concentrations ([7]; SCC4 cells, higher concentrations): completely abolished EdU incorporation | GI50 ([8]; Homo sapiens, OVCAR-8): 6.27 µM | CC50 ([8]; Homo sapiens, OVCAR-8, read-out: LC50): 51.1 µM | TGI ([8]; Ovarian Cancer, OVCAR-8): 2.03E-5 | TGI ([9]; Breast Cancer, HS 578T): 2.65E-5 | GI50 ([9]; Homo sapiens, Hs-578T): 8.8 µM | CC50 ([9]; Homo sapiens, Hs-578T, read-out: LC50): 72.5 µM | TGI ([10]; Breast Cancer, BT-549): 7.74E-6 | GI50 ([10]; Homo sapiens, BT-549): 2.03 µM | CC50 ([10]; Homo sapiens, BT-549, read-out: LC50): 28.5 µM | GI50 ([11]; Homo sapiens, CAKI-1): 4.98 µM | CC50 ([11]; Homo sapiens, CAKI-1, read-out: LC50): 41.3 µM | TGI ([11]; Renal Cancer, CAKI-1): 1.71E-5 | TGI ([12]; Breast Cancer, T-47D): 6.69E-6 | GI50 ([12]; Homo sapiens, T47D): 2.21 µM | CC50 ([12]; Homo sapiens, T47D, read-out: LC50): 27.1 µM | TGI ([13]; Colon Cancer, HCT-116): 1.09E-5 | GI50 ([13]; Homo sapiens, HCT-116): 2.13 µM | CC50 ([13]; Homo sapiens, HCT-116, read-out: LC50): 33.4 µM | GI50 ([14]; Homo sapiens, NCI-H226): 1.98 µM | CC50 ([14]; Homo sapiens, NCI-H226, read-out: LC50): 33 µM | TGI ([14]; Non-Small Cell Lung Cancer, NCI-H226): 1.07E-5 | GI50 ([15]; Homo sapiens, NCI-H460): 1.6 µM | CC50 ([15]; Homo sapiens, NCI-H460, read-out: LC50): 9.51 µM | TGI ([15]; Non-Small Cell Lung Cancer, NCI-H460): 3.90E-6 | GI50 ([16]; Homo sapiens, MOLT-4): 1.15 µM | CC50 ([16]; Homo sapiens, MOLT-4, read-out: LC50): 40.9 µM | TGI ([16]; Leukemia, MOLT-4): 4.60E-6 | GI50 ([17]; Homo sapiens): 1.21 µM | CC50 ([17]; Homo sapiens, read-out: LC50): 24.9 µM | TGI ([17]; Leukemia): 3.91E-6
